Data set [1] in a line: In vitro dissociation in blood plasma of rat. The data set is classed as in vitro ADME, SD rats. Conditions: fresh SD rat plasma, 37° C.; for Sampling time/Dissociation percent (%) 2 min: 2 min incubation; for Sampling time/Dissociation percent (%) 5 min: 5 min incubation; for Sampling time/Dissociation percent (%) 10 min: 10 min incubation. As for the experimental part:
The obtained water soluble taxane derivatives of the following formulae were formulated as 0.2 mg/ml aqueous solutions. […] After 2 min, 5 min and 10 min of incubation, 0.2 ml of solutions were respectively taken from each of the samples, and added to acetonitrile (0.4 ml) cooled to −20° C. for precipitation of protein.

A short description of data set [2]: In vitro dissociation in blood plasma of rabbit. The data set is classed as in vitro ADME, New Zealand white rabbits. Conditions: fresh New Zealand white rabbit plasma, 37° C. As for the experimental part:
The obtained water soluble taxane derivatives of the following formulae were formulated as 0.2 mg/ml aqueous solutions. […]

Counter-ions that a name gives are not always drawn.

As to “2′-O-[4-(aziridin-1-yl)amino-2,2-difluoroheptanoyl]docetaxel methanesulfonate [Compound 14]”, in data set [1], the “Sampling time/Dissociation percent (%) 2 min” value was 42.1%, the “Sampling time/Dissociation percent (%) 5 min” value was determined as 55.7% and the “Sampling time/Dissociation percent (%) 10 min” value worked out at 72.5%.

As to `CCCCC(CC(F)(C(=O)OC(C(=O)OC1CC2(O)C(OC(=O)c3ccccc3)C3C4(OC(C)=O)COC4CC(O)C3(C)C(=O)C(OC(C)=O)C(=C1C)C2(C)C)C(NC(=O)c1ccccc1)c1ccccc1)C(F)(F)F)N(C)C1CCCC1.Cl` (mixture of isomers) [Compound C15, 2′-O-[4-N-methyl-N-cyclopentylamino-2-trifluoromethyl-2-fluorooctanoyl]paclitaxel hydrochloride], in data set [1], the “Sampling time/Dissociation percent (%) 2 min” value was 34.2%, the “Sampling time/Dissociation percent (%) 5 min” value was 45.3% and the “Sampling time/Dissociation percent (%) 10 min” value turned out to be 58.2%.

Take `CO[C@H]1C(=O)[C@]2(C)[C@@H](OC)C[C@H]3OC[C@@]3(OC(C)=O)[C@H]2[C@H](OC(=O)c2ccccc2)[C@]2(O)C[C@H](OC(=O)[C@H](OC(=O)[C@H](F)CCN(C)C)[C@@H](NC(=O)OC(C)(C)C)c3ccccc3)C(C)=C1C2(C)C` [Compound 07, 2′-O-[4-N,N-dimethylamino-2(R)-fluorobutyryl]cabazitaxel hydrochloride]: in data set [1], the “Sampling time/Dissociation percent (%) 2 min” value was 49.5%, the “Sampling time/Dissociation percent (%) 5 min” value was 89.6% and the “Sampling time/Dissociation percent (%) 10 min” value amounted to 100%. In data set [2], the “Sampling time/Dissociation percent (%) 2 min” value came to 79.2%, the “Sampling time/Dissociation percent (%) 5 min” value is 95.5% and the “Sampling time/Dissociation percent (%) 10 min” value turned out to be 100%.

With `CO[C@H]1C(=O)[C@]2(C)[C@@H](OC)C[C@H]3OC[C@@]3(OC(C)=O)[C@H]2[C@H](OC(=O)c2ccccc2)[C@]2(O)C[C@H](OC(=O)[C@H](OC(=O)[C@@H](F)CCN(C)C)[C@@H](NC(=O)OC(C)(C)C)c3ccccc3)C(C)=C1C2(C)C.Cl` [Compound 08, 2′-O-[4-N,N-dimethylamino-2(S)-fluorobutyryl]cabazitaxel hydrochloride], in data set [1], the “Sampling time/Dissociation percent (%) 2 min” value is recorded as 47.6%, the “Sampling time/Dissociation percent (%) 5 min” value worked out at 87.6% and the “Sampling time/Dissociation percent (%) 10 min” value is 100%. Further, in data set [2], the “Sampling time/Dissociation percent (%) 2 min” value is 89.9%, the “Sampling time/Dissociation percent (%) 5 min” value stood at 93.2% and the “Sampling time/Dissociation percent (%) 10 min” value worked out at 100%.

For the molecule `COC1C(=O)C2(C)C(OC)CC3OCC3(OC(C)=O)C2C(OC(=O)c2ccccc2)C2(O)CC(OC(=O)C(OC(=O)C(F)CCN(C)C)C(NC(=O)OC(C)(C)C)c3ccccc3)C(C)=C1C2(C)C.Cl` [Compound 09, 2′-O-[4-N,N-dimethylamino-2(R,S)-fluorobutyryl]cabazitaxel hydrochloride], in data set [1], the “Sampling time/Dissociation percent (%) 2 min” value stood at 47.8%, the “Sampling time/Dissociation percent (%) 5 min” value is 89.1% and the “Sampling time/Dissociation percent (%) 10 min” value was found to be 100%. In addition, in data set [2], the “Sampling time/Dissociation percent (%) 2 min” value is listed as 83.2%, the “Sampling time/Dissociation percent (%) 5 min” value was 97.1% and the “Sampling time/Dissociation percent (%) 10 min” value is listed as 100%.

As to `COC1C(=O)C2(C)C(OC)CC3OCC3(OC(C)=O)C2C(OC(=O)c2ccccc2)C2(O)CC(OC(=O)C(OC(=O)C(CCN)C(F)F)C(NC(=O)OC(C)(C)C)c3ccccc3)C(C)=C1C2(C)C.O=S(=O)([O-])O.[Na+]` [Compound 10, 2′-O-[4-amino-2(R)-difluoromethylbutyryl]cabazitaxel sodium bisulfate salt], in data set [1], the “Sampling time/Dissociation percent (%) 2 min” value was 45.2%, the “Sampling time/Dissociation percent (%) 5 min” value is 86.5% and the “Sampling time/Dissociation percent (%) 10 min” value worked out at 96.8%. For the same molecule, in data set [2], the “Sampling time/Dissociation percent (%) 2 min” value turned out to be 38.1%, the “Sampling time/Dissociation percent (%) 5 min” value was found to be 63.2% and the “Sampling time/Dissociation percent (%) 10 min” value is given as 80.3%.

With `CCN(CC)CC[C@](C)(C(=O)O[C@@H](C(=O)O[C@H]1C[C@@]2(O)[C@@H](OC(=O)c3ccccc3)[C@@H]3[C@]4(OC(C)=O)CO[C@@H]4C[C@H](OC)[C@@]3(C)C(=O)[C@H](OC)C(=C1C)C2(C)C)[C@@H](NC(=O)OC(C)(C)C)c1ccccc1)C(F)(F)F.CS(=O)(=O)O` [Compound 11, 2′-O-[4-N,N-diethylamino-2-methyl-2(R)-2-trifluoromethylbutyryl]cabazitaxel methanesulfonate], in data set [1], the “Sampling time/Dissociation percent (%) 2 min” value was determined as 52.3%, the “Sampling time/Dissociation percent (%) 5 min” value came to 89.6% and the “Sampling time/Dissociation percent (%) 10 min” value is 97.2%. In data set [2], the “Sampling time/Dissociation percent (%) 2 min” value is 56.2%, the “Sampling time/Dissociation percent (%) 5 min” value is on record as 80.5% and the “Sampling time/Dissociation percent (%) 10 min” value is recorded as 92.1%.

As to `CCN(C)C(C)C[C@H](CC(F)F)C(=O)O[C@@H](C(=O)O[C@H]1C[C@@]2(O)[C@@H](OC(=O)c3ccccc3)[C@@H]3[C@]4(OC(C)=O)CO[C@@H]4C[C@H](O)[C@@]3(C)C(=O)[C@H](O)C(=C1C)C2(C)C)[C@@H](NC(=O)OC(C)(C)C)c1ccccc1.Cl` (stereo partly drawn) [Compound 12, 2′-O-[4-N-methyl-N-ethylamino-2(R)-2-difluoroethylvaleryl]docetaxel hydrochloride], in data set [1], the “Sampling time/Dissociation percent (%) 2 min” value is 43.6%, the “Sampling time/Dissociation percent (%) 5 min” value was 75.6% and the “Sampling time/Dissociation percent (%) 10 min” value is on record as 89.6%. Besides, in data set [2], the “Sampling time/Dissociation percent (%) 2 min” value amounted to 35.2%, the “Sampling time/Dissociation percent (%) 5 min” value stood at 61.3% and the “Sampling time/Dissociation percent (%) 10 min” value is given as 73.2%.

As to `CO[C@H]1C(=O)[C@]2(C)[C@@H](OC)C[C@H]3OC[C@@]3(OC(C)=O)[C@H]2[C@H](OC(=O)c2ccccc2)[C@]2(O)C[C@H](OC(=O)[C@H](OC(=O)[C@@H](CCN)C(F)F)[C@@H](NC(=O)OC(C)(C)C)c3ccccc3)C(C)=C1C2(C)C.O=S(=O)(O)O` [Compound C10, 2′-O-[4-amino-2(R)-difluoromethylbutyryl]cabazitaxel sulfate], in data set [1], the “Sampling time/Dissociation percent (%) 2 min” value worked out at 45.6%, the “Sampling time/Dissociation percent (%) 5 min” value stood at 87.1% and the “Sampling time/Dissociation percent (%) 10 min” value turned out to be 97.3%. Further, in data set [2], the “Sampling time/Dissociation percent (%) 2 min” value was determined as 48.9%, the “Sampling time/Dissociation percent (%) 5 min” value is 68.4% and the “Sampling time/Dissociation percent (%) 10 min” value is recorded as 91.3%.

Take `CCCC(CC(F)(F)C(=O)O[C@@H](C(=O)O[C@H]1C[C@@]2(O)[C@@H](OC(=O)c3ccccc3)[C@@H]3[C@]4(OC(C)=O)CO[C@@H]4C[C@H](O)[C@@]3(C)C(=O)[C@H](O)C(=C1C)C2(C)C)[C@@H](NC(=O)OC(C)(C)C)c1ccccc1)N1CC1.Cl` (stereo partly drawn) [Compound C14, 2′-O-[4-(aziridin-1-yl)amino-2,2-difluoroheptanoyl]docetaxel hydrochloride]: in data set [1], the “Sampling time/Dissociation percent (%) 2 min” value is reported as 41.9%, the “Sampling time/Dissociation percent (%) 5 min” value is reported as 54.4% and the “Sampling time/Dissociation percent (%) 10 min” value was 71.3%.

The record behind these values is patent US9650390B2, “Water-soluble taxane derivatives and uses thereof” (priority 2014, dated 2017).
